“Also recorded” adds a separate entry of the source.
Tests used:
[1] = system: FACS purified Hb9::GFP MNs; assay: MN survival after trophic factor withdrawal, FACS purified MN culture; type: cell-based, mouse; settings: FACS purified MN cultures, trophic factors withdrawn, FIG. 1C
Excerpt: ESC-derived MN culture achieves ˜30%-50% MN differentiation efficiency and is therefore highly heterogeneous. To examine whether AKIs specifically act in a cell-autonomous or non-cell-autonomous manner, we established a highly enriched MN culture through FACS purification based on Hb9::GFP reporter expression. […] Next, we asked whether AKIs exert their survival promoting effect only cell-autonomously or whether they also function non-cell-autonomously to rescue MN death. To address this question we produced astrocyte conditioned medium (ACM) by incubating primary murine astrocytes with AKIs (VX-680 and ZM447439). The ACM was then dialyzed using a dialyzer with pore size appropriate for eliminating residual AKIs.

[2] = system: wild-type (Hb9::GFP) mouse ESC derived MNs; assay: MN survival after trophic factor withdrawal, mixed culture; type: cell-based; settings: for survival of MNs (number of surviving MNs): trophic factor withdrawal, 3 days, wild-type Hb9::GFP MNs
Excerpt: In the present study, we have screened highly specific small molecule kinase inhibitors to identify those which could promote MN survival. For the screen, we generated MNs from wild-type (Hb9::GFP) and SOD1^G93A (SOD1^G93A/Hb9::GFP) mouse ESCs using published protocols (Di Giorgio et al., 2007). We withdrew trophic factors as a standard method to induce MN death. Cell plating density as well as timing for initiation and duration of trophic factor withdrawal were used exactly as published to achieve ˜80% MN death in 3 days (FIG. 1A) (Yang et al., 2013). […] We continued to work with this compound class as it reproducibly promoted survival of both MNs types and the effect was robust. We further reasoned that since this compound class promoted survival of both MN types, the probability of its working in other contexts such as on human MNs and in the ALS mouse model was maximum. […]
(§1) Trophic factors were removed and ZM447439 was added to the cultures as previously and MN survival was analyzed on day 7, 14 & 21.

[3] = system: SOD1^G93A (SOD1^G93A/Hb9::GFP) mouse ESC derived MNs; assay: as above; type: cell-based; settings: trophic factor withdrawal, 3 days; SOD1^G93A/Hb9::GFP MNs
Excerpt: In the present study, we have screened highly specific small molecule kinase inhibitors to identify those which could promote MN survival. For the screen, we generated MNs from wild-type (Hb9::GFP) and SOD1^G93A (SOD1^G93A/Hb9::GFP) mouse ESCs using published protocols (Di Giorgio et al., 2007). We withdrew trophic factors as a standard method to induce MN death. Cell plating density as well as timing for initiation and duration of trophic factor withdrawal were used exactly as published to achieve ˜80% MN death in 3 days (FIG. 1A) (Yang et al., 2013). […] We continued to work with this compound class as it reproducibly promoted survival of both MNs types and the effect was robust. We further reasoned that since this compound class promoted survival of both MN types, the probability of its working in other contexts such as on human MNs and in the ALS mouse model was maximum.
High expression of Aurora kinases is associated with various types of cancer (Sen et al., 1997; Reichardt et al., 2003; Tchatchou et al., 2007) and there are many AKIs including VX-680 and ZM447439 that are in clinical trials for anti-cancer drug development.
as §1

[4] = system: SOD1^G93A (SOD1^G93A/Hb9::GFP) mouse ESC derived MNs; settings: previous small molecule survival screen (Yang et al., 2013); cited from earlier work
[5] = system: wild-type (Hb9::GFP) mouse ESC derived MNs; settings: previous small molecule survival screen (Yang et al., 2013); cited from earlier work
[6] = system: human iPSC derived MNs (healthy control, SOD1, TDP-43, C90RF72); settings: human MNs derived from wild-type and ALS-patient-iPSCs (Yang et al., 2013); cited from earlier work
[7] = ALS (Miller et al., 2007); cited from earlier work
[8] = system: phosphorylated BAD (pBAD); assay: Phosphorylated BAD immunostaining in surviving MNs; type: cell-based, mouse; settings: absence of TFs
[9] = system: Hb9::GFP MNs; assay: Number of synapses per MN (synapsin/PSD-95 co-localization, automated imager); type: cell-based, mouse
Excerpt: (§2) To examine whether MNs kept alive by AKIs maintain morphological integrity we carried out a series of analyses on surviving MNs in the absence of trophic factors. […] We also used an automated imager to analyze the number of synapses per MN by counting co-localized regions positive for the presynaptic marker synapsin and the postsynaptic marker PSD-95.

[10] = system: SOD1^G93A/Hb9::GFP MNs; assay: as above; type: cell-based, mouse
Excerpt: as §2

[11] = system: HuES-3/Hb9::GFP human ESC derived MNs; assay: Human ESC derived MN survival after trophic factor withdrawal; type: cell-based; settings: trophic factors withdrawn; AraC pre-treated cultures
Excerpt: We generated MNs from a human ESC line expressing an HB9::GFP transgene [HuES-3/Hb9::GFP (Di Giorgio et al., 2008)]. Human ESC derived MN cultures were pre-treated with AraC to eliminate progenitor cells. We induced MN death by again withdrawing trophic factors. […] We also investigated the toxic effect of SOD1^G93A astrocytes on human ESC derived MN survival. We found significant death of human MNs cultured on mutant astrocytes.

[12] = system: Hb9::GFP and SOD1^G93A/Hb9::GFP MNs; assay: Microarray analysis of gene expression in MNs; type: cell-based, mouse; settings: compound in the absence of TFs versus -TF
Excerpt: (§3) Next we sought to investigate the mechanism by which AKIs promote MN survival. To evaluate this comprehensively we performed microarray analysis to compare gene expression between MNs cultured with: 1) Trophic factors (+TF), 2) No trophic factors (−TF), 3) VX-680 in the absence of TFs, and 4) ZM447439 in the absence of TFs. […] Gene expression was compared between +TF and −TF, VX-680 and −TF, and ZM447439 and −TF. With a cut off of more than 3 fold difference, there were 85 genes overlapping in all three comparison in Hb9::GFP MNs and 57 in SOD1^G93A/Hb9::GFP MNs. We found 39 overlapping genes when we compared both types of MNs (FIG. 5B). […] We analyzed the shortlist of 39 genes by using DAVID functional annotation bioinformatics microarray analysis software to find the potential pathways involved in MN survival. […] PKA is known to phosphorylate BAD protein, leading to increased cell survival (Jose M. LIZCANO et al., 2000; Julian Downward et al., Nature cell biology 1999; Komaki S et al., Neurosci Lett 2012). […] We further investigated this pathway by lentivirus knockdown of Prkarlb.

[13] = system: Prkarlb; assay: Prkar1b immunostaining in surviving MNs; type: cell-based, mouse; settings: absence of TFs
[14] = system: MNs; assay: Lentivirus knockdown of Prkarlb, MN survival; type: cell-based, mouse
Excerpt: as §3

[15] = system: human iPSC derived MNs (healthy control, SOD1, TDP-43, C90RF72); assay: Human iPSC derived MN survival; type: cell-based; settings: all human iPSC derived MN cultures; AraC treated
Excerpt: We produced MNs from human iPSCs lines including a healthy control, two ALS patients expressing confirmed mutations in SOD1 (Boulting et al., 2011), two with mutations in TDP-43 and one in C90RF72. We treated these cultures with AraC to minimize the number of proliferating progenitors. […] We also examined the effect of SOD 1^G93A astrocytes co-culture on iPSC derived MNs. We found no toxic effect on survival in any of the patient iPSC derived MNs, but we did observe decreased MN survival in the control iPSC derived MNs. […] We also looked at the effect of AKIs on morphology and synapse formation. […] In addition, by immunoblot we observed that ZM447439 enhanced synaptic protein, synaptophysin, expression in both the presence and absence of trophic factors.

[16] = system: synaptophysin in SOD1^G93A/Hb9::GFP MN cultures; assay: Synaptophysin immunoblotting; type: cell-based, mouse
[17] = system: synaptophysin in Hb9::GFP MN cultures; assay: Synaptophysin immunoblotting; type: cell-based, mouse
[18] = ALS drug candidates; cited from earlier work

SMILES: COc1cc2ncnc(Nc3ccc(NC(=O)c4ccccc4)cc3)c2cc1OC.Cl [4-4-Ben, N-[4-[(6,7-Dimethoxy-4-quinazolinyl)amino]phenyl] benzamide Hydrochloride]
- MN survival [1]: rescued MN survival in a dose dependent fashion
- survival of MNs (number of surviving MNs) [2]: consistently increased the survival of MNs
- survival of MNs (number of surviving MNs) [3]: consistently increased the survival of MNs

SMILES: O=C1Cc2c([nH]c3ccc(Br)cc23)-c2ccccc2N1 [Kenpaullone]
- healthy survival of MNs [4]: impressive ability to prolong the healthy survival
- healthy survival of MNs [5]: impressive ability to prolong the healthy survival
- survival of human MNs [6]: able to improve the survival

SMILES: Nc1nc2ccc(OC(F)(F)F)cc2s1 [Riluzole]
- functional improvement [7]: very little functional improvement; also recorded: little functional improvement

SMILES: Cc1cc(Nc2cc(N3CCN(C)CC3)nc(Sc3ccc(NC(=O)C4CC4)cc3)n2)[nH]n1 [VX-680, Tozasertib]
- levels of phosphorylated BAD (pBAD) [8]: increased levels
- MN survival [1]: rescued MN survival in a dose dependent fashion
- number of synapses per MN ([9]; absence of trophic factors, Hb9::GFP MNs): preserved the number of synapses
- number of synapses per MN ([9]; neurotrophin containing medium): increased the number of synapses per MN
- number of synapses per MN ([10]; absence of trophic factors, SOD1^G93A/Hb9::GFP MNs): preserved the number of synapses
- number of synapses per MN ([10]; neurotrophin containing medium): increased the number of synapses per MN
- survival effect in dose dependent assay, comparison among AKIs ([2]; mixed MN culture, FIG. 1B): most effective and potent in promoting MN survival
- survival of MNs (number of surviving MNs) [2]: consistently increased the survival of MNs; also recorded: most potent and robust at increasing survival
- human MN survival [11]: rescued human MN death
- survival of MNs (number of surviving MNs) [3]: consistently increased the survival of MNs; also recorded: most potent and robust at increasing survival
- expression of genes related to synapse formation (Syt1, Snap25 and Sv2c, Map2 and Dcx) [12]: upregulated
- levels of Prkarlb [13]: increased levels
- MN survival on knocking down Prkarlb in the presence of the compound [14]: effectively decreased MN survival
- MN survival [15]: substantially increase MN survival
- expression of synaptic protein synaptophysin [16]: increased expression
- expression of synaptic protein synaptophysin [17]: increased expression

SMILES: CCCN[C@@H]1CCc2nc(N)sc2C1 [dexpramipexole]
- outcome of phase III clinical trials [18]: failed

SMILES: CC(C)CCC[C@@H](C)[C@H]1CC[C@H]2[C@@H]3CCC4=CC(=NO)CC[C@]4(C)[C@H]3CC[C@]12C [olesoxime]
- outcome of phase III clinical trials [18]: failed

Reference: patent publication US20160287602A1, “METHODS FOR PROMOTING MOTOR NEURON SURVIVAL” (PRESIDENT AND FELLOWS OF HARVARD COLLEGE, priority 2013, published 2016)
